How the values were obtained:
[1] = tested on: lens capsule; experiment: Staining of lens capsule removed during intraocular surgery; settings: concentrations of 0.5% or less; dye removed after one minute
Description: (§1) The following four dyes were examined as examples for the inventive dyes in the present study: Light green yellowish SF (LG SF), E68, Bromophenol blue (BPB) and Chicago blue (CB). ICG (Pulsion, Munich, Germany) was used as a reference. All dyes were dissolved and diluted with balanced salt solution (BSS plus; Alcon Laboratories Inc., Fort Worth, Tex.) and concentrations of 1.0, 0.5, 0.2 and 0.05% were obtained. Dry ICG powder was first dissolved with sterile water provided by the manufacturer resulting in a 0.5% solution and then further diluted using BSS plus to a concentration of 0.05%. The dyes were then used to stain lens capsule and epiretinal membranes removed during intraocular surgery. Immediately after removal, the material was placed on a glass slide and covered with a few drops of the dye. After one minute, the dye was carefully removed by irrigation using BSS plus. Lens capsule and epiretinal tissue was then evaluated macroscopically and using light microscopy. The staining effect was subjectively graded as “excellent, good, fair or absent” by one unmasked person and photographs were taken.

[2] = tested on: epiretinal membranes (ERM); experiment: Staining of epiretinal membranes removed during intraocular surgery; settings: concentration of 1%; dye removed after one minute
Description: as §1

[3] = tested on: lens capsule; experiment: Staining of the lens capsule in enucleated porcine eyes; settings: injected into air-filled anterior chamber, removed after one minute; clear porcine lens as background
Description: Additionally, the staining characteristics of the lens capsule in enucleated porcine eyes with a postmortem time of nine hours were evaluated. The dyes were injected into the air-filled anterior chamber and removed by irrigation after one minute. Then, the cornea was removed and a capsulorhexis was performed with a bent needle. All procedures were taped on video.

[4] = Light absorbing properties (UV/VIS/NIR spectrometer); type: physicochemical; settings: measured up to a content of 0.05% dye
Description: Light absorption was measured in 0.05% solutions, with BSS plus as a solvent medium. Light absorption was measured instantly after preparation of a stock solution of the dye using a UV/VIS/NIR Spectrometer (Lambda 900, Perkin Elmer) between 200 and 1000 nm.

[5] = tested on: ARPE-19 cells; experiment: Life-dead assay (propidium iodide / Hoechst 33342), ARPE-19 cells; type: cell-based
Description: (§2) Confluent RPE and ARPE-19 cells were prepared and treated as described above. Cell viability was quantified based on a two-color fluorescence assay in which the nuclei of nonviable cells appear red because of staining by the membrane-impermeable dye propidium iodide (Sigma), whereas the nuclei of all cells were stained with the membrane-permeable dye Hoechst 33342 (Intergen, Purchase, N.Y.). […] For evaluation of cell viability, cells were washed in PBS and incubated with 2.0 μg/mL propidium iodide and 1.0 μg/mL Hoechst 33342 for 20 minutes at 37° C. Subsequently, cells were analyzed with an epifluorescence microscope (Axioskop; Zeiss, Göttingen, Germany). The labeled nuclei were then counted in fluorescence photomicrographs, and dead cells were expressed as a percentage of total nuclei in the field. The data are based on counts from three experiments performed in duplicate wells, with three to five documented representative fields per well.

[6] = tested on: primary RPE cells; experiment: Life-dead assay (propidium iodide / Hoechst 33342), primary RPE cells; type: cell-based
Description: Invest Ophthalmol Vis Sci 2002; 43: 3575-82.
as §2

[7] = tested on: vitreous; experiment: Staining of the vitreous during pars plana vitrectomy in porcine eyes; type: in vivo; settings: graded by two examiners
Description: All dyes were dissolved and diluted using balanced salt solution (BSS plus; Alcon Laboratories Inc., Fort Worth, Tex).
Experiments were performed in animals (porcine eyes) and humans after approval of the local ethics committee had been obtained. All experiments were performed in compliance with the Declaration of Helsinki.
Ophthalmic surgery consisted of a standard pars plana vitrectomy. First, the transparent vitreous was removed as completely as possible. Then fluid air exchange was performed in order to avoid an uncontrolled distribution of the dye in the vitreous cavity. The dye was then injected into the air filled globe. After a period of one minute, the dye was washed out by irrigation with BSS. This was followed by an injection of the dye in concentrations from 0.2% to 2%. The staining of the vitreous was graded by two examiners who also performed the surgical procedures.

[8] = tested on: ARPE-19 cells; experiment: MTT assay, ARPE-19 cells; settings: 0.2% and 0.02% dye, 10 minutes exposure, compared to BSS plus control
Description: ARPE-19 cells, a human retinal pigment epithelial cell line (42), were purchased from ATCC (Manassas, Va., USA) and grown in a 1:1 mixture of Dulbecco's modified Eagles medium and Ham's F12 medium (DMEM/Ham's F12, Biochrom), supplemented with 10% FCS (Biochrom).
For exposure of dyes RPE and ARPE-19 cells were kept for 24 hours under serum free conditions. After washing cells three times with PBS, cells were incubated for 10 minutes with 300 μl of BSS plus containing 0.2% or 0.02% of dye, respectively. […] The dye was then removed by carefully rinsing cells with BSS plus three times. After 24 hours incubation with serum containing media the cell proliferation assay was performed. RPE cells (p3-6) were seeded in 24-well plates and exposed to two concentrations (0.2 and 0.02%) of dyes. BSS plus alone and H2O2, (200 μL/mL) served as controls.
The tetrazolium dye-reduction assay (MTT; 3-[4,5-dimethylthiazol-2-yl]-2,5-diphenyl tetrazolium bromide;) was used to determine cell survival rate. […] The medium was removed, cells were washed with PBS, and 1000 μL/well MTT solution (1.5 mL MTT stock, 2 mg/mL in PBS, plus 28.5 mL DMEM) was added. RPE cells were incubated at 37° C. for 1 hour. The formazan crystals that formed were dissolved by the addition of dimethyl sulfoxide (DMSO; 1000 μL/well). Absorption was measured by a scanning multiwell spectrophotometer at 550 nm (Molecular Probes, Garching, Germany). […] Experiments were performed in triplicate and repeated three times. RPE and ARPE-19 cells of the same passage incubated with BSS without addition of dyes served as control. Statistical comparison between dye concentrations was performed with SPSS (Mann-Whitney-U-Test).
The MTT test as performed in this study is a well established test for the assessment of cell viability, but relies on calorimetric measurement of a blue (550 nm) formazan reaction product. This color overlaps with the absorption spectra of some of the dyes tested. […] Cell monolayers were treated with dyes as per the experiments described above but absorbance readings were performed without prior application of MTT. […]

[9] = tested on: primary RPE cells; experiment: MTT assay, primary RPE cells; settings: 0.2% and 0.02% dye, 10 minutes exposure, compared to BSS plus control
Description: In brief, whole eyes were thoroughly cleansed in 0.9% NaCl solution, immersed in 5% polyvinyl pyrrolidone iodine, and rinsed again in the sodiumchloride solution. The anterior segment from each donor eye was removed and the posterior poles were examined with the aid of a binocular stereomicroscope to confirm the absence of gross retinal disease. Next, the neural retinas were carefully peeled away from the RPE-choroid-sclera using fine forceps. The eye cup was rinsed with Ca^2+ and Mg^2+-free Hank's balanced salt solution, and filled with 0.25% trypsin (GIBCO, Karlsruhe, Germany) for 30 min at 37° C. The trypsin was carefully aspirated and replaced with Dulbecco's modified eagles medium (DMEM, Biochrom, Berlin, Germany) supplemented with 20% fetal calf serum (FCS, Biochrom). Using a pipette, the media was gently agitated, releasing the RPE into the media by avoiding damage to Bruch's membrane. The RPE cell solution was transferred to a 50 ml flask (Falcon, Wiesbaden, Germany) containing 20 ml of DMEM (Biochrom) supplemented with 20% FCS (Biochrom) and maintained at 37° C. and 5% carbon dioxide. […] After having grown to confluency (100%), primary RPE cells were subcultured and maintained in DMEM (Biochrom) supplemented with 10% FCS (Biochrom) at 37° C. and 5% carbon dioxide. Primary RPE of passage 3-6 and ARPE-19 cells were used for experiments.
For exposure of dyes RPE and ARPE-19 cells were kept for 24 hours under serum free conditions. After washing cells three times with PBS, cells were incubated for 10 minutes with 300 μl of BSS plus containing 0.2% or 0.02% of dye, respectively. […] The dye was then removed by carefully rinsing cells with BSS plus three times. After 24 hours incubation with serum containing media the cell proliferation assay was performed. […]
The tetrazolium dye-reduction assay (MTT; 3-[4,5-dimethylthiazol-2-yl]-2,5-diphenyl tetrazolium bromide;) was used to determine cell survival rate. […] Absorption was measured by a scanning multiwell spectrophotometer at 550 nm (Molecular Probes, Garching, Germany). […]

Compound | staining effect in removed lens capsule material [1] | staining of ERM [2] | staining of the lens capsule in porcine eyes [3] | position of the long wavelength maximum, influence of dye concentration [4] | cell viability, nuclei of nonviable cells labeled with propidium iodide [5] | toxicity of 0.02% in comparison to the 0.2% dye solution [5] | cell viability, nuclei of nonviable cells labeled with propidium iodide [6] | toxicity of 0.02% in comparison to the 0.2% dye solution [6] | staining effect of the vitreous ([7]; dye concentration 0.2%) | staining effect of the vitreous ([7]; dye concentration 2.0%) | cell survival of ARPE-19 cells (MTT) [8] | cell survival of primary RPE cells (MTT) [9]
CCN(Cc1cccc(S(=O)(=O)O)c1)c1ccc(C(=C2C=CC(=[N+](CC)Cc3cccc(S(=O)(=O)O)c3)C=C2)c2ccc(S(=O)(=O)O)cc2)cc1.[Na+].[Na+] [Light green SF] | did not stain lens capsule sufficiently | weak staining | weak staining effects | not influenced by the dye concentration | significantly affect cell viability | far less toxic | significantly affect cell viability | far less toxic | strong | strong | no significant impact on cell survival | no influence on cell survival
Copperphtalocyanine-3,4′,4″,4′″-tetrasulphonic acid tetrasodium salt [E68] | – | – | stained well | – | did not affect cell survival | – | did not affect cell survival | – | weak | strong | – | –
Chicago blue | – | – | stained well | not influenced by the dye concentration | significantly affect cell viability | – | significantly affect cell viability | – | weak | strong | no significant impact on cell survival | no influence on cell survival

From US20080206149A1, “METHOD, DYE AND MEDICAMENT FOR STAINING THE INTERNAL LIMITING MEMBRANE, EPIRETINAL MEMBRANE, THE VITREOUS AND/OR THE CAPSULE OF AN EYE” (LUDWIG-MAXIMILIANS-UNIVERSITAT MUNCHEN, priority 2005, published 2008)
